Reference: patent US12172995B2, “Substituted indole and indazole compounds” (BRISTOL-MYERS SQUIBB COMPANY, priority 2018, dated 2024)

Tests used:
Assay type in all cases: cell-based
human TLR7 = molecular target: T1, human TLR7 (Homo sapiens, UniProt Q9NYK1); experiment: TLR7 inhibition reporter assay (HEK-Blue SEAP); conditions: HEK-Blue cells overexpressing human TLR7, stimulated with gardiquimod 7.5 μM, 22 hour incubation
T1 construct: host or cells: HEK-Blue cells
T1 sequence (Q9NYK1 27-1049): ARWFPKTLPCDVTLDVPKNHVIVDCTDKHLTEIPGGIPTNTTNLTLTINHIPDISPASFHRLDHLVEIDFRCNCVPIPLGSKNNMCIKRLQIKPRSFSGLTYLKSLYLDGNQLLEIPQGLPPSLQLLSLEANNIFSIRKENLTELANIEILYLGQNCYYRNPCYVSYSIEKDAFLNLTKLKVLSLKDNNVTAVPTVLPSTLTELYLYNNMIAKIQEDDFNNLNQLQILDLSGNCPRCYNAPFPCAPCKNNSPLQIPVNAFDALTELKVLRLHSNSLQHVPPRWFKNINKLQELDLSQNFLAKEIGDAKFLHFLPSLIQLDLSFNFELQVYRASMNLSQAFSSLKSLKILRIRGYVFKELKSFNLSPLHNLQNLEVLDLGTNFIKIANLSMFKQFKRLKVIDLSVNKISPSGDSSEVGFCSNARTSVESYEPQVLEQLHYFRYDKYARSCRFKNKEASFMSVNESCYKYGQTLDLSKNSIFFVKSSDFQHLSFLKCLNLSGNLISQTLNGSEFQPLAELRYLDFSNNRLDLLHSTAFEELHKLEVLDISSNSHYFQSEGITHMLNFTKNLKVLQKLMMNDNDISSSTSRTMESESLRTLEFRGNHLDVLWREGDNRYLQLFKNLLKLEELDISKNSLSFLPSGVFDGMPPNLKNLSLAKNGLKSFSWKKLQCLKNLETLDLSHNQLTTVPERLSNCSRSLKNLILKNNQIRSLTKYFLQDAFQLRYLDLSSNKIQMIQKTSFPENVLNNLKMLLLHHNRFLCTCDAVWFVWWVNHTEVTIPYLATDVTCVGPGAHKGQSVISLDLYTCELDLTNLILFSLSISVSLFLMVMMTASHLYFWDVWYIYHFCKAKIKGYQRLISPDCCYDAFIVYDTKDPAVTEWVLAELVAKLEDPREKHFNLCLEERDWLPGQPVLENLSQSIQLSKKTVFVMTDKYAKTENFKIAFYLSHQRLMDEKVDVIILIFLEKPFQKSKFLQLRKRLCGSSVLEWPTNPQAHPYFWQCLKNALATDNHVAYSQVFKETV
How it was run: (§1)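 Cells are seeded, given test compound across 0.05 nM to 50 μM, and after 30 min at room temperature stimulated with the receptor's agonist (gardiquimod 7.5 μM, R848 15.9 μM or ODN2006 5 nM for TLR7, 8, 9). SEAP is measured after 22 h at 37 °C.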

human TLR8 = molecular target: T2, human TLR8 (Homo sapiens, UniProt Q9NR97); experiment: TLR8 inhibition reporter assay (HEK-Blue SEAP); conditions: HEK-Blue cells overexpressing human TLR8, stimulated with R848 15.9 μM, 22 hour incubation
T2 construct: host or cells: HEK-Blue cells
T2 sequence (Q9NR97 27-1041): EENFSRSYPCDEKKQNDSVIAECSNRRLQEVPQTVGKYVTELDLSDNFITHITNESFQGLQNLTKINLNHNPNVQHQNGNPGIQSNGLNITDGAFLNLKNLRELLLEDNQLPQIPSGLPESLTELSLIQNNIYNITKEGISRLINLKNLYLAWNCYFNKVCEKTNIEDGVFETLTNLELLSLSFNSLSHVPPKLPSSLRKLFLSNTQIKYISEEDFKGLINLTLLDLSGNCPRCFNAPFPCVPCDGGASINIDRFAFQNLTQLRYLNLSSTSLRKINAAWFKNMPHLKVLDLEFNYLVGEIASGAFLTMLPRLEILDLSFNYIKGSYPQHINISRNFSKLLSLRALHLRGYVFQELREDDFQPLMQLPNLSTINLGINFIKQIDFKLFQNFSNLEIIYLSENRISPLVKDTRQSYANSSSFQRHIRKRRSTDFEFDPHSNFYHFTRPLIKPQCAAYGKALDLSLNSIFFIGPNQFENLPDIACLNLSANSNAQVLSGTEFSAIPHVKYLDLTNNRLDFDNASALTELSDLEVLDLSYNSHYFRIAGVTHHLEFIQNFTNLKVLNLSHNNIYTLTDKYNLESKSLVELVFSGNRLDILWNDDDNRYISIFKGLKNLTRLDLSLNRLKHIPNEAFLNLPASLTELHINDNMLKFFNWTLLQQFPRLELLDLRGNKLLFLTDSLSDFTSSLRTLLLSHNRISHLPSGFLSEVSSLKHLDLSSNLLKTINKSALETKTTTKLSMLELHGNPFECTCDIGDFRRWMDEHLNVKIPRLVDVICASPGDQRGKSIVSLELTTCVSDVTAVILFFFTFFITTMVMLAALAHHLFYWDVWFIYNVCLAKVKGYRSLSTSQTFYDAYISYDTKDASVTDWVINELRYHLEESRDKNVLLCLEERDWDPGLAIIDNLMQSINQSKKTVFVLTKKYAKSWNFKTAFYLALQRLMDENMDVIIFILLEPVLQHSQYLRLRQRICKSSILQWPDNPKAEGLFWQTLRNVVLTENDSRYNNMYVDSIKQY
How it was run: as §1

human TLR9 = molecular target: T3, human TLR9 (Homo sapiens, UniProt Q9NR96); experiment: TLR9 inhibition reporter assay (HEK-Blue SEAP); conditions: HEK-Blue cells overexpressing human TLR9, stimulated with ODN2006 5 nM, 22 hour incubation
T3 construct: host or cells: HEK-Blue cells
T3 sequence (Q9NR96 26-1032): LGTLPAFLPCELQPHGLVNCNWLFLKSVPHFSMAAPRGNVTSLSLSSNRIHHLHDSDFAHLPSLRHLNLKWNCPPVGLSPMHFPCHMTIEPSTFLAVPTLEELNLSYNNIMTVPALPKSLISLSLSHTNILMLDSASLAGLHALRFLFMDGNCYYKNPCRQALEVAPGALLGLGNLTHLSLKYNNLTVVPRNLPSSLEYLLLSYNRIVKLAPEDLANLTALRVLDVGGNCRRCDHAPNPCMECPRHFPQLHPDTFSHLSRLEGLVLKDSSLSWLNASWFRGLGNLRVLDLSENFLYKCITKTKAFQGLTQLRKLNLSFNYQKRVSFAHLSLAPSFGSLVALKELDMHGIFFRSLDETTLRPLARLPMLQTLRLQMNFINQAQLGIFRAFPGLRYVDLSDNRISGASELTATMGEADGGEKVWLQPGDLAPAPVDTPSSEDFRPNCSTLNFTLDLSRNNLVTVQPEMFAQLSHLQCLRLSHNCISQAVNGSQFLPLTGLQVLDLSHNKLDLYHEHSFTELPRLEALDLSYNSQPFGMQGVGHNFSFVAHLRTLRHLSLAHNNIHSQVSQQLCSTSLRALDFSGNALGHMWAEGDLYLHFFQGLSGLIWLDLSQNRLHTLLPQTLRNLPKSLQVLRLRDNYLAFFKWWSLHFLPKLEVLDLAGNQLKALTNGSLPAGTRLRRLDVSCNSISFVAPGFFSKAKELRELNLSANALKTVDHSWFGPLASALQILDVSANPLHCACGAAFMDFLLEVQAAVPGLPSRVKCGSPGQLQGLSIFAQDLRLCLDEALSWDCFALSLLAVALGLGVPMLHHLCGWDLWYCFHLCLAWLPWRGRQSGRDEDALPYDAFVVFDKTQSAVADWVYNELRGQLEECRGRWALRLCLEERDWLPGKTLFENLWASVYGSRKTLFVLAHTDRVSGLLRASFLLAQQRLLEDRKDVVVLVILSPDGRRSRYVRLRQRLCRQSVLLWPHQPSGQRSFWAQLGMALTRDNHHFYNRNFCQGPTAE
How it was run: as §1

Structure (SMILES)	IC50 (human TLR7)	IC50 (human TLR8)	IC50 (human TLR9)
COC1CN(C2CCC(c3n[nH]c4cc(-c5cc(C)c6ncnn6c5)c(C(C)C)cc34)CC2)C1 (stereo not drawn) [Example 145, 6-(5-isopropyl-3-(4-(3-methoxyazetidin-1-yl)cyclohexyl)-1H-indazol-6-yl)-8-methyl-[1,2,4]triazolo[1,5-a]pyridine]	1.5 nM	0.8 nM	8690 nM
Cc1cc(-c2cc3[nH]nc(C4CCC(N5CC(CO)(CO)C5)CC4)c3cc2C(C)C)cn2ncnc12 (stereo not drawn) [Example 146, (1-(4-(5-isopropyl-6-(8-methyl-[1,2,4]triazolo[1,5-a]pyridin-6-yl)-1H-indazol-3-yl)cyclohexyl)azetidine-3,3-diyl)dimethanol]	4.7 nM	2.6 nM	≥ 50000 nM
Cc1cc(-c2cc3[nH]nc(C4CCC(N5CC(F)C5)CC4)c3cc2C(C)C)cn2ncnc12 (stereo not drawn) [Example 151, 6-(3-(4-(3-fluoroazetidin-1-yl)cyclohexyl)-5-isopropyl-1H-indazol-6-yl)-8-methyl-[1,2,4]triazolo[1,5-a]pyridine]	1.4 nM	0.6 nM	8360 nM
Cc1cc(-c2cc3[nH]nc(C4CCC(N5CC(F)C5)CC4)c3cc2C(C)C)cn2ncnc12 (stereo not drawn) [Example 152, 6-(3-(4-(3-fluoroazetidin-1-yl)cyclohexyl)-5-isopropyl-1H-indazol-6-yl)-8-methyl-[1,2,4]triazolo[1,5-a]pyridine]	1.3 nM	0.3 nM	13000 nM
Cc1cc(-c2cc3[nH]nc(C4CCC(N5CC(C)(O)C5)CC4)c3cc2C(C)C)cn2ncnc12 (stereo not drawn) [Example 153, 1-(4-(5-isopropyl-6-(8-methyl-[1,2,4]triazolo[1,5-a]pyridin-6-yl)-1H-indazol-3-yl)cyclohexyl)-3-methylazetidin-3-01]	1.1 nM	0.6 nM	7450 nM
Cc1cc(-c2cc3[nH]nc(C4CCC(N5CC(C)(O)C5)CC4)c3cc2C(C)C)cn2ncnc12 (stereo not drawn) [Example 154, 1-(4-(5-isopropyl-6-(8-methyl-[1,2,4]triazolo[1,5-a]pyridin-6-yl)-1H-indazol-3-yl)cyclohexyl)-3-methylazetidin-3-01]	0.5 nM	0.2 nM	15900 nM
Cc1cc(-c2cc3[nH]nc(C4CCC(N5CC6(CCO6)C5)CC4)c3cc2C(C)C)cn2ncnc12 (stereo not drawn) [Example 155, 6-(4-(5-isopropyl-6-(8-methyl-[1,2,4]triazolo[1,5-a]pyridin-6-yl)-1H-indazol-3-yl)cyclohexyl)-1-oxa-6-azaspiro[3.3]heptane]	1.8 nM	0.2 nM	7560 nM
Cc1cc(-c2cc3[nH]nc(C4CCC(N5CC6(CCO6)C5)CC4)c3cc2C(C)C)cn2ncnc12 (stereo not drawn) [Example 156, 6-(4-(5-isopropyl-6-(8-methyl-[1,2,4]triazolo[1,5-a]pyridin-6-yl)-1H-indazol-3-yl)cyclohexyl)-1-oxa-6-azaspiro[3.3]heptane]	0.8 nM	0.1 nM	6110 nM
Cc1cc(-c2cc3[nH]nc(C4CCC(N5CC6(CCOC6)C5)CC4)c3cc2C(C)C)cn2ncnc12 (stereo not drawn) [Example 157, 2-(4-(5-isopropyl-6-(8-methyl-[1,2,4]triazolo[1,5-a]pyridin-6-yl)-1H-indazol-3-yl)cyclohexyl)-6-oxa-2-azaspiro[3.4]octane]	0.5 nM	0.4 nM	6730 nM
Cc1cc(-c2cc3[nH]nc(C4CCC(N5CC6(CCOC6)C5)CC4)c3cc2C(C)C)cn2ncnc12 (stereo not drawn) [Example 158, 2-(4-(5-isopropyl-6-(8-methyl-[1,2,4]triazolo[1,5-a]pyridin-6-yl)-1H-indazol-3-yl)cyclohexyl)-6-oxa-2-azaspiro[3.4]octane]	0.5 nM	0.2 nM	9850 nM
Cc1cc(-c2cc3[nH]nc(C4CCC(N5CCC(F)C5)CC4)c3cc2C(C)C)cn2ncnc12 (stereo not drawn) [Example 163, 6-(3-(4-(3-fluoropyrrolidin-1-yl)cyclohexyl)-5-isopropyl-1H-indazol-6-yl)-8-methyl-[1,2,4] triazolo[1,5-a]pyridine]	0.9 nM	0.1 nM	6230 nM
Cc1cc(-c2cc3[nH]nc(C4CCC(N5CCC(F)C5)CC4)c3cc2C(C)C)cn2ncnc12 (stereo not drawn) [Example 164, 6-(3-(4-(3-fluoropyrrolidin-1-yl)cyclohexyl)-5-isopropyl-1H-indazol-6-yl)-8-methyl-[1,2,4] triazolo[1,5-a]pyridine]	1.5 nM	0.1 nM	6450 nM
Cc1cc2c(OC3CCNCC3)n[nH]c2cc1-c1cc(C)c2ncnn2c1 [Example 167, 8-methyl-6-(5-methyl-3-(piperidin-4-yloxy)-1H-indazol-6-yl)-[1,2,4]triazolo[1,5-a]pyridine]	5.4 nM	0.2 nM	631 nM
